Data published in patent US20260356835A1, “BICYCLIC HETEROARYL COMPOUNDS” (QuantX Biosciences US, Inc., priority 2023, published 2026).

Tests used:
[1] = target: T1, N-his8-TEV-hPARG (389-976) (Homo sapiens, UniProt Q86W56); assay: PARG Biochemical Enzymatic Assay (PARG inhibition HTRF assay); settings: 62.5 pM PARG, 5 nM Biotin-Parylated PARP1 substrate, 60 minutes preincubation, 10 minutes reaction at 23 °C
T1 construct: N-his8-TEV-hPARG (389-976); His8 (N); TEV protease cleavage site (N); made in house; host or cells: E. coli BL21(DE3)
Method: PARG Biochemical Enzymatic Assay
TEV-His8-PolyADP-Ribose Polymerase 1 (379-1014) (PARP1) and N-his8-TEV-hPARG (389-976) were used to transform BL21(DE3) competent cells followed by growth for 1 hour at 37 °C and plating on Kanamycin resistant agar plates. A single colony was then inoculated into 1 ml of Luria Broth and expansion into a 1 liter scale for growth at 37 °C for 3 hours. Expression was induced via 0.2 mM IPTG induction for 20 hours at 16 °C in BL21(DE3) E. coli. Purification was then performed using a Nickel column, size exclusion chromatography and HPLC analysis.
For substrate preparation, […] nicked DNA and 2 μM PARP1 protein were mixed for 10 minutes at 25 °C 10 μM biotin-NAD+ and 100 μM NAD+ were then added and incubated for 60 minutes at 30 °C to yield PARylated PARP1 substrate.
For compound screening, compounds were serially diluted to a 3× final concentration in assay buffer (Tris pH7.5 50 mM, KCl 50 mM, Tween-20 0.01%, BSA 0.1 mg/ml, EDTA 3 mM, EGTA 0.4 mM, DTT 1 mM) containing 1% DMSO. A top concentration of 1.5 μM for a 10-point dose response curve using a 1:3 dilution curve was used. 2.5×PARG (156.25 pM working concentration, 62.5 pM final concentration) was prepared in assay buffer and 4 ul added to a 384 well assay plate containing 2 μl of serially diluted compound. The plate was then centrifuged for 10 seconds and incubated for 60 minutes at 23 °C. 4 μl of 2.5× Biotin-Parylated PARP1 (12.5 nM working concentration, 5 nM final concentration) was then added to the plate and incubated for 10 minutes at 23 °C. 4 μl of […] Detection reagent containing 0.44 μg/ml of Streptavidin-Europium cryptate and 4 μg/ml of anti-6His-XL665 monoclonal antibody was added to the plate and incubated for 60 minutes at 23 °C. The Homogeneous Time Resolved Fluorescent (HTRF) signal was then measured on an Envision plate reader using and excitation wavelength of 337 nm and emission wavelengths of 615 nm and 665 nm. Normalized percent inhibition was then calculated using the following equation: % Inhibition normalized=(compound signal-min signal)/(max signal-min signal)*100%, where Maximum signal was substrate only wells and Minimum signal was enzyme and substrate well. IC50 was calculated by fitting % Inhibition values and log of compound concentrations to nonlinear regression (log(inhibitor) vs. response—Variable slope(four parameters)) with GraphPad 9.4.1
For biochemical activity, bracket is denoted as: A<100 nM; 100 nM<B<500 nM; C>500 nM

Kuramochi cells = assay: Cellular Viability Assay (5 day Kuramochi cell viability, CellTiter-Glo); type: cell-based; settings: 5 days, 37 °C, growth inhibition relative to Day 0 (T0) and DMSO
Method: Kuramochi cells were seeded at a density of 1000 cells per well in a 384-well, white, sterile, clear bottom plate, using a Multidrop liquid dispenser and incubated for 24 hours at 37 °C in a 5% CO2 humidified environment. 24 hours later, compounds were added starting at a top dose of 10 μM for a 9-point dose response curve at a 1:3 dilution using an iDOT HT liquid handler and incubated for 5 days at 37 °C in a 5% CO2 humidified environment. After 5 days and at Day 0, plates were incubated at room temperature for 30 minutes followed by the addition of 30 μl of CellTiter-Glo Reagent. Plates were then mixed for 10 minutes on an orbital shaker followed by incubation at room temperature for 20 minutes. Luminescence was then read using the Envision plate reader. Percent Growth Inhibition was then calculated using the following equation: Percent Growth Inhibition normalized=100−(compound signal−T0)/(max signal−T0)*100%, where Max Signal refers to the DMSO only treated cells and T0 refers to the Day0 viability measurement. Growth Inhibition 50 was then calculated using the following equation: Y=Bottom+(Top−Bottom)/(1+10^((Log IC50−X)*hillslope)).
For cell activity, bracket is denoted as: A<1 uM; 1 uM<B<5 uM; C>5 uM.

T1 sequence (Q86W56 389-976): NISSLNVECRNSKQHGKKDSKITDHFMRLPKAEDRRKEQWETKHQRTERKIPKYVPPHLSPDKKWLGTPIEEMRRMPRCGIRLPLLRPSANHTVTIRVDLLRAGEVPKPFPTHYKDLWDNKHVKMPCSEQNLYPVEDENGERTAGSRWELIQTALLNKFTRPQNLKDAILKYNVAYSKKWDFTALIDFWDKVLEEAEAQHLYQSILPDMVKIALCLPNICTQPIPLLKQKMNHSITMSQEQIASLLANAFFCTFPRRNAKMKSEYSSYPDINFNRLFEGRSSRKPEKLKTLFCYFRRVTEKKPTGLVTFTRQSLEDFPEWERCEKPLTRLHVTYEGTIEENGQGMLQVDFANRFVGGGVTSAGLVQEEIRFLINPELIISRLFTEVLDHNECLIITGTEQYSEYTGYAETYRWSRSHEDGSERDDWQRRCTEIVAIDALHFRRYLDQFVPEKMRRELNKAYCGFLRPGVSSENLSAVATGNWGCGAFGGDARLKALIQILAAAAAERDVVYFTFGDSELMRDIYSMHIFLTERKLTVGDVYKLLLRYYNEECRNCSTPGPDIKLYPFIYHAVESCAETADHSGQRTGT

| SMILES | IC50 [1] [nM] | IC50 (Kuramochi cells) [nM] |
| --- | --- | --- |
| N#CC1(c2nnc(-n3ncc4c(N5CCC6(CC5)COC6)cc(S(=O)(=O)NC5(C(F)F)CC5)cc43)s2)CC1 [Example 32, 1-(5-(1-cyanocyclopropyl)-1,3,4-thiadiazol-2-yl)-N-(1-(difluoromethyl)cyclopropyl)-4-(2-oxa-7-azaspiro[3.5]nonan-7-yl)-1H-indazole-6-sulfonamide] | < 100 | < 1000 |
| Cc1nnc(-c2cnn3c(N4CCC5(CC4)COC5)cc(S(=O)(=O)NC4(C)CC4)cc23)s1 [Example 7, 3-(5-methyl-1,3,4-thiadiazol-2-yl)-N-(1-methylcyclopropyl)-7-(2-oxa-7-azaspiro[3.5]nonan-7-yl)pyrazolo[1,5-a]pyridine-5-sulfonamide] | < 100 | < 1000 |
| CC1(NS(=O)(=O)c2cc(N3CCC4(CC3)COC4)n3ncc(-c4nc(C(F)F)cs4)c3c2)CC1 [Example 15, 3-(4-(difluoromethyl)thiazol-2-yl)-N-(1-methylcyclopropyl)-7-(2-oxa-7-azaspiro[3.5]nonan-7-yl)pyrazolo[1,5-a]pyridine-5-sulfonamide] | < 100 | < 1000 |
